Source: paper PMC10043390, “Novel 2-substituted-5-(4-chloro-2-phenoxy)phenyl-1,3,4-oxadiazole derivatives, ligands of GABAA/benzodiazepine receptor complex: Design, synthesis, radioligand binding assay, and pharmacological evaluation” (EXCLI Journal, 2023)
Several values for one entry are separate records, joined by “and”; a condition that tells them apart may be missing. Identical values can stand only once. Like-named read-outs stand apart in the source and are kept apart here.

Legend:
male NMRI albino mice [1] = assay: PTZ-induced lethal convulsion test; format: in vivo
Description: (§1) To assess the anticonvulsant activity of the novel compound 6a, we used PTZ-induced convulsion and MES tests (Guerrini et al., 2008[10]; Lankau et al., 2007[13]). In both models, the ability of the novel compound to protect mice against induced seizures was evaluated. Animals were closely observed for 30 minutes after injection of the lethal dose of PTZ (100 mg/kg) and the number of dead mice after convulsion was reported. In the MES test, each subject was observed closely and the incidence of hind limb tonic extension (HLTE) in the subjects after application of MES (60 Hz, 37.2 mA, and 0.25 s) was reported.
(§2) Kd and Bmax in radioligand binding assay were calculated by non-linear regression analysis of the saturation and competitive curve data (Program Prism, Graph Pad, San Diego, CA). The IC50s of the novel compounds in binding studies were determined using […]. […] In PTZ and MES tests, the data were presented as a mean with 95% confidence intervals. In the rest of the pharmacological evaluations, one-way ANOVA with Tukey's HSD post-hoc test was used. All the data were presented as mean ± SEM and P<0.05 was considered statistically significant.

male NMRI albino mice [2] = assay: Elevated plus-maze test; format: in vivo; settings: for % duration in close arms / % duration in open arms: raw data of single animals
Description: The elevated plus-maze device was made up of Plexiglas, and it contained two open arms (30×5×0.5 cm) and two closed arms (30×5×35 cm) with an open roof. They were arranged so that the open arms were opposite to […]. The entire maze was elevated at a height of 1 meter. The mice were individually placed in the central square of the maze (5×5 cm) where all four arms were connected together after 30 minutes of intraperitoneal (i.p) administration of the test compounds. The time spent in the open and closed arms was recorded.

[3] = biological target: benzodiazepine receptor of rat brains; assay: Radioligand receptor binding assay ([3H]-flumazenil competitive binding); settings: for Ki: [3H]-flumazenil competitive binding; for Specific binding of [3H]flumazenil: mean ± SEM, n=3; for IC50: reduction of specific binding of [3H]-flumazenil by 50 %, triplicates, 30 °C, 35 min
Description: All of the binding assays were performed in triplicates in a total volume of 500 µL at 30 °C for 35 min (Ahmadi et al., 2013[1]).
as §2

male NMRI albino mice [4] = assay: Pentobarbital-induced sleep test; format: in vivo; settings: for Sleeping time: pentobarbital 40 mg/kg i.p., raw data of single animals
Description: The duration of the loss of the righting reflex was considered as the sleeping time. […] For prevention of hypothermia during the experiment, animals were placed on an electric blanket (Khoramjouy et al., 2021[11]).

male NMRI albino mice [5] = settings: for latency of entrance to the dark compartment: testing day, raw data of single animals
Description: For the mice to get adapted to the lab environment, we transferred them to the lab 60 minutes before the tests started. Mice were randomly selected for all the experimental groups and each subject was tested only once for the pharmacological evaluations.
Distilled water was used as a solvent (vehicle) of PTZ and pentobarbital. Both, PTZ and pentobarbital were injected i.p. 5 ml/kg.
The passive avoidance cage (Malek Teb Co., Tehran) consists of two different compartments separated by a guillotine door. One of the compartments was black and dark while the other one was white and lighted. For the training trial, each mouse was placed in the white and light compartment and facing away from the guillotine door for 30 seconds. Next, the guillotine door was opened and the mouse was able to freely enter the black and dark compartment. When the mouse entered the black and dark compartment with four paws, it received an electric unpleasant stimulus (0.5 mA, 2 seconds) through the grid floor. On the testing day (after 24 hours), we placed the mouse in the lighted compartment and there was no electrical stimulus. We reported the latency to enter the black and dark compartment while the guillotine door was open.

male NMRI albino mice [6] = assay: Maximal electroshock (MES) test; format: in vivo
Description: as §1, §2

[7] = doses of 5 and 10 mg/kg, over 10 minutes

## O=C(Nc1ccccc1)c1nnc(-c2ccc(Cl)cc2Oc2ccccc2)o1 [6a, 5-(4-chloro-2-phenoxyphenyl)-N-phenyl-1,3,4-oxadiazole-2-carboxamide]
Male NMRI albino mice [1]; Mus musculus, i.p. 30 min before PTZ 100 mg/kg, mean with 95% confidence intervals
  ED50: 72 mg/kg
Male NMRI albino mice [1]; PTZ test, flumazenil 10 mg/kg
  anticonvulsant activity in presence of flumazenil: can antagonize the anticonvulsant activity
Male NMRI albino mice [2]; 1.25 mg/kg i.p.
  % duration in close arms: 65.00% (2×) and 67.00% and 56.00% and 60.00% and 53.00% and 64.00% and 59.00%
  % duration in open arms: 35.00% (2×) and 33.00% and 44.00% and 40.00% and 47.00% and 36.21% and 41.00%
Male NMRI albino mice [2]; 5 mg/kg i.p.
  % duration in close arms: 48.50% (2×) and 44.54% and 44.40% and 43.48% and 38.16% and 47.65% and 51.65%
  % duration in open arms: 51.49% (2×) and 55.45% and 55.59% and 56.51% and 61.83% and 52.34% and 48.34%
Male NMRI albino mice [2]; 10 mg/kg i.p.
  % duration in close arms: 42.44% and 46.28% and 47.65% and 43.17% and 37.57% and 45.37% and 41.04% and 26.78%
  % duration in open arms: 57.55% and 53.71% and 52.34% and 56.82% and 62.42% and 54.62% and 58.96% and 73.22%
Male NMRI albino mice [2]; [7]
  effect on close arm time (CAT): decrease the close arm time
  effect on open arm time (OAT): increase the open arm time
[3]
  Ki: 0.44 nM
  IC50: 0.73 ± 0.17 nM
[3]; log[L] -7.0
  Specific binding of [3H]flumazenil: 0.3167±0.0378 cpm
[3]; log[L] -8.0
  Specific binding of [3H]flumazenil: 0.4000±0.0412 cpm
[3]; log[L] -8.5
  Specific binding of [3H]flumazenil: 0.4200±0.0102 cpm
[3]; log[L] -9.0
  Specific binding of [3H]flumazenil: 0.4667±0.0090 cpm
[3]; log[L] -9.5
  Specific binding of [3H]flumazenil: 0.5100±0.0156 cpm
[3]; log[L] -10.0
  Specific binding of [3H]flumazenil: 0.5800±0.0156 cpm
[3]; log[L] -11.0
  Specific binding of [3H]flumazenil: 0.6267±0.0034 cpm
Male NMRI albino mice [4]; 1.25 mg/kg i.p.
  Sleeping time: 26 min and 38 min and 39 min and 46 min and 28 min and 20 min and 24 min and 32 min
Male NMRI albino mice [4]; 5 mg/kg i.p.
  Sleeping time: 48 minute and 44 minute and 50 minute (2×) and 43 minute and 57 minute and 40 minute and 56 minute
Male NMRI albino mice [4]; 10 mg/kg + Flumazenil (10 mg/kg)
  Sleeping time: 43 minute (2×) and 34 minute (2×) and 27 minute (2×) and 32 minute and 29 minute
Male NMRI albino mice [4]; 10 mg/kg i.p.
  Sleeping time: 53 minute and 64 minute and 47 minute (2×) and 43 minute and 40 minute and 55 minute and 49 minute
Male NMRI albino mice [4]; dose of 10 and 5 mg/kg, P<0.001
  effect on sleeping time: increased the sleeping time
Male NMRI albino mice [4]; with flumazenil 10 mg/kg, P<0.001
  hypnotic effect in presence of flumazenil: prevented by flumazenil
Male NMRI albino mice [5]; 1.25 mg/kg i.p.
  latency of entrance to the dark compartment: 320 second and 380 second and 393 second and 467 second and 480 second (2×) and 420 second (2×)
Male NMRI albino mice [5]; 5 mg/kg i.p.
  latency of entrance to the dark compartment: 480 second (2×) and 440 second and 344 second and 343 second and 380 second and 407 second and 251 second
Male NMRI albino mice [5]; 10 mg/kg i.p.
  latency of entrance to the dark compartment: 320 s and 460 s and 407 s and 230 s and 400 s and 420 s and 480 s and 326 s
Male NMRI albino mice [5]; doses of 1.25, 2.5, 5, and 10 mg/kg
  effect on latency to enter the dark compartment: did not show any significant effect
Male NMRI albino mice [6]; MES test, flumazenil 10 mg/kg
  anticonvulsant activity in presence of flumazenil: can antagonize the anticonvulsant activity
Male NMRI albino mice [6]; Mus musculus, ip, i.p. 30 min before MES (60 Hz, 37.2 mA, 0.25 s), HLTE, mean with 95% confidence intervals
  ED50: 27.8 mg/kg

## O=C(Nc1ccccn1)c1nnc(-c2ccc(Cl)cc2Oc2ccccc2)o1 [6b, 5-(4-chloro-2-phenoxyphenyl)-N-(pyridin-2-yl)-1,3,4-oxadiazole-2-carboxamide]
[3]
  Ki: 2.35 nM
  IC50: 3.84 ± 0.1 nM
[3]; log[L] -7.0
  Specific binding of [3H]flumazenil: 0.2333±0.0148 cpm
[3]; log[L] -8.0
  Specific binding of [3H]flumazenil: 0.3733±0.0223 cpm
[3]; log[L] -8.5
  Specific binding of [3H]flumazenil: 0.4267±0.0090 cpm
[3]; log[L] -9.0
  Specific binding of [3H]flumazenil: 0.5233±0.0180 cpm
[3]; log[L] -9.5
  Specific binding of [3H]flumazenil: 0.5467±0.0068 cpm
[3]; log[L] -10.0
  Specific binding of [3H]flumazenil: 0.5900±0.0118 cpm
[3]; log[L] -11.0
  Specific binding of [3H]flumazenil: 0.6433±0.0122 cpm
other
  melting point: 198 to 200 °C

## Cc1cccc(NC(=O)c2nnc(-c3ccc(Cl)cc3Oc3ccccc3)o2)n1 [6c, 5-(4-chloro-2-phenoxyphenyl)-N-(6-methylpyridin-2-yl)-1,3,4-oxadiazole-2-carboxamide]
[3]
  Ki: 0.76 nM
  IC50: 1.25 ± 0.09 nM
[3]; log[L] -7.0
  Specific binding of [3H]flumazenil: 0.3000±0.0059 cpm
[3]; log[L] -8.0
  Specific binding of [3H]flumazenil: 0.3100±0.0102 cpm
[3]; log[L] -8.5
  Specific binding of [3H]flumazenil: 0.3767±0.0090 cpm
[3]; log[L] -9.0
  Specific binding of [3H]flumazenil: 0.4467±0.0207 cpm
[3]; log[L] -9.5
  Specific binding of [3H]flumazenil: 0.5367±0.0122 cpm
[3]; log[L] -10.0
  Specific binding of [3H]flumazenil: 0.5700±0.0156 cpm
[3]; log[L] -11.0
  Specific binding of [3H]flumazenil: 0.5733±0.0207 cpm
other
  melting point: 183.2 to 184.3 °C

## Cc1ccnc(NC(=O)c2nnc(-c3ccc(Cl)cc3Oc3ccccc3)o2)c1 [6d, 5-(4-chloro-2-phenoxyphenyl)-N-(4-methylpyridin-2-yl)-1,3,4-oxadiazole-2-carboxamide]
[3]
  Ki: 0.88 nM
  IC50: 1.44 ± 0.09 nM
[3]; log[L] -7.0
  Specific binding of [3H]flumazenil: 0.3000±0.0059 cpm
[3]; log[L] -8.0
  Specific binding of [3H]flumazenil: 0.3100±0.0102 cpm
[3]; log[L] -8.5
  Specific binding of [3H]flumazenil: 0.3767±0.0090 cpm
[3]; log[L] -9.0
  Specific binding of [3H]flumazenil: 0.4467±0.0207 cpm
[3]; log[L] -9.5
  Specific binding of [3H]flumazenil: 0.5367±0.0122 cpm
[3]; log[L] -10.0
  Specific binding of [3H]flumazenil: 0.5700±0.0156 cpm
[3]; log[L] -11.0
  Specific binding of [3H]flumazenil: 0.5733±0.0207 cpm
other
  melting point: 188.2 to 189.1 °C

## O=C(NN1CCOCC1)c1nnc(-c2ccc(Cl)cc2Oc2ccccc2)o1 [6e, 5-(4-chloro-2-phenoxyphenyl)-N-morpholino-1,3,4-oxadiazole-2-carboxamide]
[3]
  Ki: 0.95 nM
  IC50: 1.55 ± 0.1 nM
[3]; log[L] -7.0
  Specific binding of [3H]flumazenil: 0.2900±0.0059 cpm
[3]; log[L] -8.0
  Specific binding of [3H]flumazenil: 0.3067±0.0090 cpm
[3]; log[L] -8.5
  Specific binding of [3H]flumazenil: 0.3600±0.0060 cpm
[3]; log[L] -9.0
  Specific binding of [3H]flumazenil: 0.5867±0.0090 cpm
[3]; log[L] -9.5
  Specific binding of [3H]flumazenil: 0.6033±0.0189 cpm
[3]; log[L] -10.0
  Specific binding of [3H]flumazenil: 0.6667±0.0148 cpm
[3]; log[L] -11.0
  Specific binding of [3H]flumazenil: 0.6967±0.0148 cpm
other
  melting point: 159 to 161 °C

## O=C(NC1CCCCC1)c1nnc(-c2ccc(Cl)cc2Oc2ccccc2)o1 [6f, 5-(4-chloro-2-phenoxyphenyl)-N-cyclohexyl-1,3,4-oxadiazole-2-carboxamide]
[3]
  Ki: 1.53 nM
  IC50: 2.51 ± 0.13 nM
[3]; log[L] -7.0
  Specific binding of [3H]flumazenil: 0.2133±0.0272 cpm
[3]; log[L] -8.0
  Specific binding of [3H]flumazenil: 0.3533±0.0189 cpm
[3]; log[L] -8.5
  Specific binding of [3H]flumazenil: 0.4000±0.0118 cpm
[3]; log[L] -9.0
  Specific binding of [3H]flumazenil: 0.4533±0.0148 cpm
[3]; log[L] -9.5
  Specific binding of [3H]flumazenil: 0.5500±0.0156 cpm
[3]; log[L] -10.0
  Specific binding of [3H]flumazenil: 0.6133±0.0296 cpm
[3]; log[L] -11.0
  Specific binding of [3H]flumazenil: 0.5933±0.0207 cpm
other
  melting point: 132 to 133 °C
